Patent publication US12090176B2 (priority 2019, dated 2024)
Read-outs that look alike come from different tables or passages of the source.

Test system: hematopoietic system damage model in which the mouse has been exposed to cyclophosphamide
Assay type: in vivo, KM mice
Parameters: unit not given here

## C#C[C@]1(O)[C@H](O)C[C@H]2[C@@H]3CCc4cc(OC5CCCC5)ccc4[C@H]3CC[C@@]21C [Nilestriol]
Nilestriol 10 mg/kg group, normal (before modeling)
  peripheral blood WBC: 13.8 ± 2.5 ×10^12
Nilestriol 10 mg/kg once 6 h after cyclophosphamide, 1 d after modeling
  peripheral blood WBC: 3.6 ± 0.9 ×10^12
Nilestriol 10 mg/kg once 6 h after cyclophosphamide, 4 d after modeling
  peripheral blood WBC: 3.5 ± 2.5 ×10^12
Nilestriol 10 mg/kg once 6 h after cyclophosphamide, 6 d after modeling
  peripheral blood WBC: 8.0 ± 2.5 ×10^12
Nilestriol 10 mg/kg once 6 h after cyclophosphamide, 12 d after modeling
  peripheral blood WBC: 12.0 ± 5.9 ×10^12
